The source of these data is patent US9980943B2, “Methods of treating muscular dystrophy” (BOARD OF REGENTS OF THE NEVADA SYSTEM OF HIGHER EDUCATION, …, priority 2013, dated 2018).

Format in all cases: cell-based, mouse
The subject of experiment [1] is α7 integrin (LacZ reporter in α7βgal+/− myoblasts). Briefly: Myoblast α7+/LacZ integrin FDG assay (Burkin assay in myoblasts, 96-well). Particulars: 96-well; for Burkin Assay in Myoblasts, signal relative to DMSO: α7+/LacZ myoblasts; for Burkin Assay in Myoblasts, value relative to DMSO: SU9516 analogs, N=3-6.
The test system of experiment [2] is β-galactosidase in CMV-LacZ C2C12 myoblasts. Kind of experiment: CMV-LacZ secondary screen in C2C12 myoblasts (β-Gal stabilizing assay). Particulars: for CMV-LACZ in Myoblasts (β-galactosidase activity relative to DMSO): CMV-LacZ C2C12 myoblasts; for CMV-LACZ in Myoblasts, value relative to DMSO: SU9516 analogs, C2C12 CMV-LacZ, N=2. An outline of the steps:
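C2C12 myoblasts stably carrying a linearized CMV-driven LacZ construct, clone chosen by β-gal level in the myoblast FDG assay. Compounds tested in 96-well dose-response at 0.5, 1, 5, 10, 20 and 40 μM, N=2 replicates per point, to detect β-gal stabilization.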

Experiment [3] has as its system β-galactosidase in CMV-LacZ C2C12 myotubes. Briefly: CMV-LacZ secondary screen in C2C12 myotubes (β-Gal stabilizing assay). Particulars: for CMV-LACZ in Myotubes, signal relative to DMSO: C2C12 CMV-LacZ myotubes, fold relative to DMSO; for CMV-LACZ in Myotubes, value relative to DMSO: SU9516 analogs, C2C12 CMV-LacZ, N=2. An outline of the steps: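 CMV-LacZ C2C12 line (clonal, FDG-screened); myoblasts/myotubes dosed 0.5–40 μM (0.5, 1, 5, 10, 20, 40 μM); n=2 per point; β-gal stabilization read-out.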

In experiment [4] the test system is α7 integrin (LacZ reporter in α7+/LacZ myotubes). Kind of experiment: Myotube α7 integrin FDG assay (Burkin assay in myotubes, 96-well). Particulars: for Burkin Assay in Myotubes, value relative to DMSO: SU9516 analogs, 96-well, N=3-6.

As for `CCc1c(C)sc(NC(=O)c2ccco2)c1C#N` [MLS001240181-01], the “Burkin Assay in Myoblasts, signal relative to DMSO” value in experiment [1] (0.5 uM) worked out at 1.082; in experiment [1] (1 uM), 1.081; in experiment [1] (5 uM) it was 1.4585; in experiment [1] (10 uM), 1.074; in experiment [1] (20 uM), 1.153; in experiment [1] (40 uM) it was 1.198. In addition, the “CMV-LACZ in Myoblasts (β-galactosidase activity relative to DMSO)” value in experiment [2] (0.5 uM) is given as 0.9550; in experiment [2] (1 uM), 1.0441; in experiment [2] (5 uM), 0.8408; in experiment [2] (10 uM), 1.1645; in experiment [2] (20 uM), 1.0367; in experiment [2] (40 uM), 0.8907. Besides, the “CMV-LACZ in Myotubes, signal relative to DMSO” value in experiment [3] (0.5 uM) was 0.9519; in experiment [3] (1 uM) it was 1.0511; in experiment [3] (5 uM) it was 1.0895; in experiment [3] (10 uM) it was 0.9955; in experiment [3] (20 uM) it was 1.0976; in experiment [3] (40 uM), 1.1376. The “Burkin Assay in Myotubes, α7 integrin LacZ reporter signal relative to DMSO” value came out at 1.174 in experiment [4] (0.5 uM); 1.214 in experiment [4] (1 uM); 1.643 in experiment [4] (5 uM); 0.9683 in experiment [4] (10 uM); 0.8871 in experiment [4] (20 uM); 0.7905 in experiment [4] (40 uM).

In the case of `COc1ccc(C(=O)/C=C2/C(=O)Nc3ccccc32)cc1OC` [MLS001163860-01], the “Burkin Assay in Myoblasts, value relative to DMSO” value in experiment [1] (0.5 uM) was 0.9494; in experiment [1] (1 uM), 0.8457; in experiment [1] (5 uM), 0.5793; in experiment [1] (10 uM), 0.4922; in experiment [1] (20 uM), 0.1722; in experiment [1] (40 uM) it was 0.2347. Besides, the “CMV-LACZ in Myoblasts, value relative to DMSO” value in experiment [2] (0.5 uM) was 0.9350; in experiment [2] (1 uM) it was 0.8230; in experiment [2] (5 uM), 0.9610; in experiment [2] (10 uM) it was 1.1417; in experiment [2] (20 uM) it was 0.3425; in experiment [2] (40 uM) it was 0.6488. Further, the “CMV-LACZ in Myotubes, value relative to DMSO” value was 1.0352 in experiment [3] (0.5 uM); 1.1562 in experiment [3] (1 uM); 1.1250 in experiment [3] (5 uM); 1.2757 in experiment [3] (10 uM); 1.3880 in experiment [3] (20 uM); 1.4490 in experiment [3] (40 uM). The “Burkin Assay in Myotubes, value relative to DMSO” value in experiment [4] (0.5 uM) turned out to be 1.009; in experiment [4] (1 uM) it was 0.9404; in experiment [4] (5 uM), 0.9223; in experiment [4] (10 uM), 1.138; in experiment [4] (20 uM), 0.862; in experiment [4] (40 uM) it was 1.209.

As to `O=C(COc1ccc(Cl)cc1)N1CCN(C2CCCC2)CC1.O=C(O)C(=O)O` [MLS001221318-01], the “Burkin Assay in Myoblasts, signal relative to DMSO” value in experiment [1] (0.5 uM) came to 1.118; in experiment [1] (1 uM) it was 1.283; in experiment [1] (5 uM), 1.01; in experiment [1] (10 uM), 0.9944; in experiment [1] (20 uM), 1.054; in experiment [1] (40 uM), 1.075. Besides, the “CMV-LACZ in Myoblasts (β-galactosidase activity relative to DMSO)” value in experiment [2] (0.5 uM) stood at 0.8528; in experiment [2] (1 uM), 1.0538; in experiment [2] (5 uM), 1.0999; in experiment [2] (10 uM) it was 0.9955; in experiment [2] (20 uM), 1.0181; in experiment [2] (40 uM) it was 1.5641. The “CMV-LACZ in Myotubes, signal relative to DMSO” value in experiment [3] (0.5 uM) amounted to 1.0037; in experiment [3] (1 uM), 1.4059; in experiment [3] (5 uM), 1.1337; in experiment [3] (10 uM), 0.9944; in experiment [3] (20 uM) it was 1.2212; in experiment [3] (40 uM), 0.8576. The “Burkin Assay in Myotubes, α7 integrin LacZ reporter signal relative to DMSO” value in experiment [4] (0.5 uM) came to 1.133; in experiment [4] (1 uM), 1.082; in experiment [4] (5 uM), 0.9266; in experiment [4] (10 uM) it was 0.9591; in experiment [4] (20 uM), 0.8071; in experiment [4] (40 uM) it was 0.7186.

Take `COCCSc1ccccc1C(=O)Nc1cc(C)cc(C)c1` [MLS000675441-01]: the “Burkin Assay in Myoblasts, signal relative to DMSO” value in experiment [1] (0.5 uM) was 0.9397; in experiment [1] (1 uM), 0.8764; in experiment [1] (5 uM), 1.044; in experiment [1] (10 uM), 1.248; in experiment [1] (20 uM), 0.9015; in experiment [1] (40 uM), 0.8996. The “CMV-LACZ in Myoblasts (β-galactosidase activity relative to DMSO)” value is 1.0332 in experiment [2] (0.5 uM); 0.9289 in experiment [2] (1 uM); 0.8800 in experiment [2] (5 uM); 0.8690 in experiment [2] (10 uM); 0.8656 in experiment [2] (20 uM); 0.7437 in experiment [2] (40 uM). Besides, the “CMV-LACZ in Myotubes, signal relative to DMSO” value in experiment [3] (0.5 uM) is 1.0074; in experiment [3] (1 uM), 1.1032; in experiment [3] (5 uM), 1.0460; in experiment [3] (10 uM) it was 1.0337; in experiment [3] (20 uM) it was 0.9578; in experiment [3] (40 uM) it was 0.9822. Besides, the “Burkin Assay in Myotubes, α7 integrin LacZ reporter signal relative to DMSO” value is 0.8552 in experiment [4] (0.5 uM); 1.071 in experiment [4] (1 uM); 0.9591 in experiment [4] (5 uM); 1.119 in experiment [4] (10 uM); 0.7476 in experiment [4] (20 uM); 0.7168 in experiment [4] (40 uM).
